Reference: patent US5994398A, “Arylsulfonamides as phospholipase A2 inhibitors” (Elan Pharmaceuticals, Inc., priority 1996, dated 1999)

What was measured:
Ca^+2 -independent PLA2 = conditions: Ackermann et al. (1995); cited from earlier work
cPLA2 = conditions: Street et al. (1993); cited from earlier work
[1] = system: Alzheimer's Disease patients; conditions: selected group of five AD patients; cited from earlier work
[2] = system: IL-1β and TNF-α release in cultured microglial cells; assay: Aβ1-40-induced cytokine (IL-1β and TNF-α) release in microglia, ELISA; assay type: cell-based, human; conditions: 50 μM Aβ1-40, cultured microglia, vs vehicle control
Description: Cultures of human cortical astrocytes and microglia were prepared using a modification of the procedure described for cortical neurons. Cortical tissue from fetuses of 16 to 20 weeks of gestation was washed 3 times in Ca^2+ /Mg^2+ free Hanks balanced salt solution (CMF HBSS) and then dissociated by repeated pipetting. The solution was brought to a final volume of 80 mL CMF HBSS for approximately 10 mL of tissue. DNase (Sigma) was added to a final concentration of 0.05 mg/mL. 20 mL of the solution was passed through one 100 μm nylon cell strained (Falcon). The cells were then centrifuged for 5 minutes at 200×G in an IEC Clinical Centrifuge and resuspended in a trypsin/EDTA solution (0.05% trypsin+0.53 mM EDTA in HBSS; Gibco) and incubated for 20 minutes at 37° C. (10 mL of trypsin was added per 2-3 mL of tissue). The trypsin was then inactivated by adding (MEM/FBS): Modified Eagle's Medium (MEM) containing 1% glucose, 1 mM sodium pyruvate, 1 mM glutamine, and supplemented with 10% fetal bovine serum (JRH). After adding a final concentration of 0.05 mg/mL DNase the cells were resuspended and then pelleted by centrifugation and resuspended in MEM/FBS. […]
Cultured microglial cells were treated with 50 μM of Aβ1-40 or vehicle only (Control). The levels of IL-1β and TNF-α released into the culture medium were determined by ELISA assay (R&D Systems) according to manufacturer's instructions. […]

Row | Molecule | inhibition of Ca+2-independent PLA2 activity (Ca^+2 -independent PLA2) | inhibition of cPLA2 (cPLA2) | effects on neuropathological progression [1] | symptomatic progression of AD [1] | stimulation of release of IL-1β and TNF-α into culture medium [2]
1 | O=C1O/C(=C/Br)CCC1c1cccc2ccccc12 (stereo not drawn) [Bromoenol lactone] | capable of inhibiting | capable of inhibiting | – | – | –
2 | CCCCC/C=C\C/C=C\C/C=C\C/C=C\CCCC(=O)C(F)(F)F [arachidonyl trifluoromethyl ketone] | capable of inhibiting | capable of inhibiting | – | – | –
3 | COc1ccc2c(c1)c(CC(=O)O)c(C)n2C(=O)c1ccc(Cl)cc1 [indomethacin] | – | – | no effects on neuropathological progression were noted | allegedly useful in reducing symptomatic progression | –
4 | CCCCCCCCCCCCCCCC(=O)C(F)(F)F [palmitoyl trifluoromethyl ketone] | capable of inhibiting | capable of inhibiting | – | – | –
5 | Aβ1-40: Amyloid-β (Aβ) peptide 1-40, stock solutions 1 mM in sterile ddH2O | – | – | – | – | found to stimulate the release of IL-1β and TNF-α
